Data as given in US7776847B2, “Benzisothiazoles useful for treating or preventing HCV infection” (priority 2005, dated 2010).

The molecules below were run on HCV replicon (assay: HCV replicon luciferase reporter assay). Settings: Hepatitis C virus, Table 5; read-out: IC50.
Format: cell-based
In short: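 IC50 is the compound amount halving luciferase signal, measured after 24–48 h treatment at various concentrations. Cells carrying the HCV replicon were pre-incubated 24 h at 37° C, 5% CO2 after seeding at about 5,000–7,500 cells/well before dosing.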

Compound	IC50
O=C(NCCCNc1nsc2ccccc12)c1ccc2[nH]cnc2c1 [Compound 449, N-(3-(benzo[d]isothiazol-3-ylamino)propyl)-1H-benzo[d]imidazole-5-carboxamide]	> 5 µM
O=C(NCCCNc1nsc2ccccc12)c1ccc2[nH]ccc2c1 [Compound 450, N-(3-(benzo[d]isothiazol-3-ylamino)propyl)-1H-indole-5-carboxamide]	< 5 µM
O=C(NCCCNc1nsc2ccccc12)c1ccc(O)nc1 [Compound 451, N-(3-(benzo[d]isothiazol-3-ylamino)propyl)-6-hydroxynicotinamide]	> 5 µM
O=C(NCCCNc1nsc2ccccc12)c1cnc(O)c(Cl)c1 [Compound 452, N-(3-(benzo[d]isothiazol-3-ylamino)propyl)-5-chloro-6-hydroxynicotinamide]	> 5 µM
CCCCC(=O)Nc1ccc2oc(C(=O)NCCCNc3nsc4ccccc34)cc2c1 [Compound 453, N-(3-(benzo[d]isothiazol-3-ylamino)propyl)-5-pentanamidobenzofuran-2-carboxamide]	< 5 µM
CCCC(=O)Nc1ccc2oc(C(=O)NCCCNc3nsc4ccccc34)cc2c1 [Compound 454, N-(3-(benzo[d]isothiazol-3-ylamino)propyl)-5-butyramidobenzofuran-2-carboxamide]	< 5 µM
CCCNC(=O)Nc1ccc2oc(C(=O)NCCCNc3nsc4ccccc34)cc2c1 [Compound 455, N-(3-(benzo[d]isothiazol-3-ylamino)propyl)-5-(3-propylureido)benzofuran-2-carboxamide]	< 5 µM
CCCCC(=O)Nc1ccc2sc(C(=O)NCCCNc3nsc4ccccc34)cc2c1 [Compound 456, N-(3-(benzo[d]isothiazol-3-ylamino)propyl)-5-pentanamidobenzo[b]thiophene-2-carboxamide]	< 5 µM
CCCC(=O)Nc1ccc2sc(C(=O)NCCCNc3nsc4ccccc34)cc2c1 [Compound 457, N-(3-(benzo[d]isothiazol-3-ylamino)propyl)-5-butyramidobenzo[b]thiophene-2-carboxamide]	< 5 µM
CCCNC(=O)Nc1ccc2sc(C(=O)NCCCNc3nsc4ccccc34)cc2c1 [Compound 458, N-(3-(benzo[d]isothiazol-3-ylamino)propyl)-5-(3-propylureido)benzo[b]thiophene-2-carboxamide]	> 5 µM
Nc1ccc2sc(C(=O)NCCCNc3nsc4ccccc34)cc2c1 [Compound 459, 5-amino-N-(3-(benzo[d]isothiazol-3-ylamino)propyl)benzo[b]thiophene-2-carboxamide]	< 5 µM
COc1ccc(-c2ccc(CN(C)CCCNc3nsc4ccccc34)cc2)cc1 [Compound 490, N^1-(benzo[d]isothiazol-3-yl)-N^3-((4′-methoxybiphenyl-4-yl)methyl)-N^3-methylpropane-1,3-diamine]	< 5 µM
COc1ccc(-c2ccc(C(=O)NCCCNc3nsc4cccc(C(F)(F)F)c34)cc2)cc1 [Compound 500, 4′-methoxy-N-(3-(4-(trifluoromethyl)benzo[d]isothiazol-3-ylamino)propyl)biphenyl-4-carboxamide]	> 5 µM
COc1ccc(CNS(=O)(=O)c2ccc3snc(NCCCNC(=O)c4ccc(-c5ccc(OC)cc5)cc4)c3c2)cc1 [Compound 515, 4′-methoxy-N-(3-(5-(N-(4-methoxybenzyl)sulfamoyl)benzo[d]isothiazol-3-ylamino)propyl)biphenyl-4-carboxamide]	> 5 µM

Same assay, conditions: Table 5; read-out: IC50

Compound	IC50
CC(C)(C)NS(=O)(=O)c1cccc2snc(NCCCN)c12 [Compound 506, 3-(3-aminopropylamino)-N-tert-butylbenzo[d]isothiazole-4-sulfonamide]	> 5 µM
CC(C)(C)NS(=O)(=O)c1cccc2c(NCCCN)nsc12 [Compound 507, 3-(3-aminopropylamino)-N-tert-butylbenzo[d]isothiazole-7-sulfonamide]	> 5 µM
CC(C)(C)NS(=O)(=O)c1ccc2c(NCCCN)nsc2c1 [Compound 508, 3-(3-aminopropylamino)-N-tert-butylbenzo[d]isothiazole-6-sulfonamide]	> 5 µM
